Assay results from patent US12404285B2, “KRAS G12D proteolysis targeting chimeras” (PAQ Therapeutics Inc., priority 2022, dated 2025).

Biological target: T1, KRAS (G12D)-HiBit in AsPc-1-KRAS (G12D)-HiBit-KI cell (Homo sapiens, UniProt P01116, G12D)
T1 construct: host or cells: AsPc-1-KRAS (G12D)-HiBit-KI cells (knock-in line)
Experiment: G12D HiBit assay
Type: cell-based
Settings: 24 hours compound treatment, absolute DC50, read-out: Average PHA DC50
Method: Day 1. Prepared the culture medium for AsPc-1-KRAS (G12D)-HiBit-KI cell (Pharmaron) using RPMI 1640 medium (Gibco, 11875093) with 10% FBS (Gibco, 10099141C) and 1% Penicillin-Streptomycin Liquid (Solarbio, P1400). Cultivated cells in T-75 flasks in a cell culture incubator (Thermo, Model: 371) at 37° C., 5% CO2. Allowed cells to reach approximately 80% confluence before splitting. Rinsed cultivated cells in T-75 flasks with 5 mL PBS (Solarbio, P1020-500). Aspirated off PBS, added 1.5 mL trypsin (Invitrogen, #25300), and incubated at 37° C. for approximately 5 minutes or until the cells detached. Inactivated trypsin by adding excessive serum containing medium. Harvested the cells from flask into cell culture medium and counted the cell number. Seeded AsPc-1-KRAS (G12D)-HiBit-KI cell into 384-well plate (Corning, 3570) (cell density: 5×10^3 cells/well in 50 μL medium) in RPMI 1640 medium and incubated overnight at 37° C. and 5% CO2.
Day 2. Test compounds were dissolved at 0.3 mM in DMSO (Solarbio, D8371) as stock solution. Transferred 45 μL of stock solution to a 384-well plate (Labcyte, 001-14555). Performed 3-fold, 10-points dilution via transferring 15 μL compound into 30 μL DMSO by using TECAN liquid handler (TECAN, Freedom EVO200). The compound plates were spin at room temperature at 1,000 RPM for 1 minute (Eppendorf, 5810R). Transferred 50 nL of diluted compounds from compound source plate into the cell plate by Echo (Labcyte, 550) to achieve final concentrations of 300 nM, 100 nM, 33.3 nM, 11.1 nM, 3.7 nM, 1.23 nM, 0.41 nM, 0.14 nM, 0.046 nM and 0.015 nM, then mixed the cell plate on a plate shaker (Yoning, WZ-4) for 15 seconds at 900 rpm. After compound treatment for 24 hours, removed the plate from incubators and equilibrated at room temperature for 15 minutes. Prepared the HiBit reagent (Promega, N3040) by mixing 10 mL of Nano-Glo®-HiBiT Lytic Buffer with 200 μL of Nano-Glo®-HiBiT Lytic Substrate and 100 μL of LgBiT Protein. Added 20 μL of HiBit reagent into each well of the cell plate and spun the plates at room temperature at 1,000 RPM for 1 minute. Then shook the plates at 600 RPM at room temperature for 20 minutes using a plate shaker (Yoning, WZ-4), and read the luminescence by EnVision (PerkinElmer, 2105-0020).
The inhibition activity was calculated using the following formula: HiBit-G12D level (%)=100%×[Luminescence(Sample)/Mean of Luminescence (HC)] where HC (high control) is obtained from cells treated with 0.1% DMSO only.
Absolute DC50 was calculated by fitting the curve using GraphPad Prism v8.0.2 (analyis 263): Y=Bottom+(100−Bottom)/(1+10^(Log AbsoluteIC50−X)*HillSlope+log((100−Bottom)/(50−Bottom)−1)))
The data are reported in Table 3, wherein “+++”=DC50 less than 100 nM, “++”=DC50 greater than or equal to 100 nM and less than 300 nM; “+”=DC50 greater than or equal to 300 nM.

T1 sequence (P01116 1-188 isoform P01116-2 G12D): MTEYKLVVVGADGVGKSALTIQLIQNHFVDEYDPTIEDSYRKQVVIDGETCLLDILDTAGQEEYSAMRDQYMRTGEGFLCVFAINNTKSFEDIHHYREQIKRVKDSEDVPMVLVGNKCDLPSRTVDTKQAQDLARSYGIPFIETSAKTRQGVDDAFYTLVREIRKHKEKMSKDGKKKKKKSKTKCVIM

Row | SMILES | DC50 [nM]
1 | CCc1c(F)ccc2cc(O)cc(-c3ncc4c(N5CCCC6(CCO6)C5)nc(OC[C@@]56CCCN5[C@H](COC(=O)N5CCC(OCCCc7cccc8c7n(C)c(=O)n8C7CCC(=O)NC7=O)CC5)CC6)nc4c3F)c12 (some centres unmarked) [Compound 34] | < 100
2 | C#Cc1c(F)ccc2cc(O)cc(-c3ncc4c(N5CCCC6(CCO6)C5)nc(OC[C@@]56CCCN5[C@H](COC(=O)N5CCC(OCCCc7cccc8c7n(C)c(=O)n8C7CCC(=O)NC7=O)CC5)CC6)nc4c3F)c12 (some centres unmarked) [Compound 35] | < 100
3 | C#Cc1c(F)ccc2cccc(-c3ncc4c(N5CCCC6(CCO6)C5)nc(OC[C@@]56CCCN5[C@H](COC(=O)N5CCC(OCCCc7cccc8c7n(C)c(=O)n8C7CCC(=O)NC7=O)CC5)CC6)nc4c3F)c12 (some centres unmarked) [Compound 36] | ≥ 300
4 | C#Cc1c(F)ccc2cccc(-c3ncc4c(N5CC6CCC(C5)N6)nc(OC[C@@]56CCCN5[C@H](COC(=O)N5CCC(OCc7cccc8c7n(C)c(=O)n8C7CCC(=O)NC7=O)CC5)CC6)nc4c3F)c12 (stereo partly drawn) [Compound 37, [(3S,8S)-8-[[4-(3,8-Diazabicyclo[3.2.1]octan-3-yl)-7-(8-ethynyl-7-fluoro-1-naphthyl)-8-fluoro-pyrido[4,3-d]pyrimidin-2-yl]oxymethyl]-1,2,3,5,6,7-hexahydropyrrolizin-3-yl]methyl4-[[1-(2,6-dioxo-3-piperidyl)-3-methyl-2-oxo-benzimidazol-4-yl]methoxy]piperidine-1-carboxylate] | 100 to 300
5 | C#Cc1c(F)ccc2cccc(-c3ncc4c(N5CC6CCC(C5)N6)nc(OC[C@@]56CCCN5[C@H](COC(=O)N5CCC(CN7CCC(c8cccc9c8n(C)c(=O)n9C8CCC(=O)NC8=O)CC7)CC5)CC6)nc4c3F)c12 (stereo partly drawn) [Compound 38, [(3S,8S)-8-[[4-(3,8-Diazabicyclo[3.2.1]octan-3-yl)-7-(8-ethynyl-7-fluoro-1-naphthyl)-8-fluoro-pyrido[4,3-d]pyrimidin-2-yl]oxymethyl]-1,2,3,5,6,7-hexahydropyrrolizin-3-yl]methyl4-[[4-[1-(2,6-dioxo-3-piperidyl)-3-methyl-2-oxo-benzimidazol-4-yl]-1-piperidyl]methyl]piperidine-1-carboxylate] | < 100
6 | C#Cc1c(F)ccc2cccc(-c3ncc4c(N5CC6CCC(C5)N6)nc(OC[C@@]56CCCN5[C@H](COC(=O)NCCCC(=O)N5CCC(c7cccc8c7n(C)c(=O)n8C7CCC(=O)NC7=O)CC5)CC6)nc4c3F)c12 (stereo partly drawn) [Compound 39, [(3S,8S)-8-[[4-(3,8-Diazabicyclo[3.2.1]octan-3-yl)-7-(8-ethynyl-7-fluoro-1-naphthyl)-8-fluoro-pyrido[4,3-d]pyrimidin-2-yl]oxymethyl]-1,2,3,5,6,7-hexahydropyrrolizin-3-yl]methyl N-[4-[4-[1-(2,6-dioxo-3-piperidyl)-3-methyl-2-oxo-benzimidazol-4-yl]-1-piperidyl]-4-oxo-butyl]carbamate] | ≥ 300
7 | C#Cc1c(F)ccc2cccc(-c3ncc4c(N5CC6CCC(C5)N6)nc(OC[C@@]56CCCN5[C@H](COC(=O)N5CCC7(CC5)CN(CCCc5cccc8c5n(C)c(=O)n8C5CCC(=O)NC5=O)CCO7)CC6)nc4c3F)c12 (some centres unmarked) [Compound 40] | < 100
8 | C#Cc1c(F)ccc2cccc(-c3ncc4c(N5CC6CCC(C5)N6)nc(OC[C@@]56CCCN5[C@H](COC(=O)N5CCC(CCCCc7cccc8c7n(C)c(=O)n8C7CCC(=O)NC7=O)CC5)CC6)nc4c3F)c12 (some centres unmarked) [Compound 41] | ≥ 300
9 | C#Cc1c(F)ccc2cccc(-c3ncc4c(N5CC6CCC(C5)N6)nc(OC[C@@]56CCCN5[C@H](COC(=O)N5CC(CN7CCN(c8ccc9c(c8)n(C)c(=O)n9C8CCC(=O)NC8=O)CC7)C5)CC6)nc4c3F)c12 (some centres unmarked) [Compound 42] | < 100
10 | C#Cc1c(F)ccc2cccc(-c3ncc4c(N5CC6CCC(C5)N6)nc(OC[C@@]56CCCN5[C@H](COC(=O)N5CCC(CCCCc7ccc8c(c7)n(C)c(=O)n8C7CCC(=O)NC7=O)CC5)CC6)nc4c3F)c12 (some centres unmarked) [Compound 43] | ≥ 300
11 | C#Cc1c(F)ccc2cccc(-c3ncc4c(N5CC6CCC(C5)N6)nc(OC[C@@]56CCCN5[C@H](COC(=O)N5CCC(CN7CCC(c8ccc9c(c8)n(C)c(=O)n9C8CCC(=O)NC8=O)CC7)CC5)CC6)nc4c3F)c12 (some centres unmarked) [Compound 44] | < 100
